# US20090123389A1, “Methods for modulating Th17 cell development in the treatment and prevention of cellulite” (priority 2007, published 2009)
# Experiments:
# CD4+ CD25− T cells = assay: CD4+ T cell proliferation, CD25 upregulation, cytokine production, Th1/Th2/iTreg differentiation; type: cell-based, mouse; conditions: for concentration causing general inhibition of T and B cell activation, proliferation and effector function: CD4+ T cells, CD8+ T cells, B220+ B cells
# Description: The dose-response of HF on CD4+ T cell proliferation, activation (i.e. CD25 upregulation) and differentiation to Th1, Th2 and Th17 lineages were evaluated. Purified murine naïve CD4+ CD25− T cells were activated using anti-CD3 (0.3 μg/ml) and anti-CD28 (0.5 μg/ml) antibodies and varying amounts of HF was added to each T cell culture condition (1.25 nM-40 nM). CD4+ T cell proliferation was monitored by CFSE dilution on day 3-post activation and CD25 expression was evaluated by FACS staining 2 days after activation. For T cell differentiation experiments, naïve T cells were activated as above in the presence of Th1 (IL-12 (20 ng/ml) plus anti-IL-4 (1.5 μg/ml)), Th2 (IL-4 (50 ng/ml) plus anti-IFNγ (0.5 mg/ml)) or Th17 (TGFβ (3 ng/ml) plus IL-6 (30 ng/ml)) polarizing conditions plus titrating amounts of HF (1.25 nM-40 nM) or MAZ1310 (40 nM). The percentage of Th17 cells, (IL-17^+ IFNγ^−) was evaluated on day 3 following activation, whereas the abundance of Th1 cells (IFNγ^+ IL-4) and Th2 cells (IL-4^+ IFNγ^−) was determined 5 days following activation. All cytokine expression was determined by intracellular staining following PMA+Ionomycin+Brefeldin A re-stimulation and all data was normalized to control (MAZ1310)-treated cells. […] Biol., vol. 80:1-8 (2006).
# Cytokines, antibodies and T cell culture: Purified CD4^+ CD25^− T cells were activated in vitro as previously described (I. M. Djuretic et al., Nat Immunol 8, 145 (2007)) using 0.3 μg/ml hamster anti-mouse CD3 (clone 145-2C11) (ATCC—Manassas, Va.) and 0.5 μg/ml hamster anti-mouse CD28 (BD Pharmingen, San Jose, Calif.). Activated cell cultures were differentiated using the following combinations of cytokines and antibodies: iTreg=recombinant human TGFβ1 (3 ng/ml; R&D systems, Minneapolis, Minn.), Th17=TGFβ1 (3 ng/ml) plus recombinant mouse IL-6 (30 ng/ml, R&D systems). Th1 and Th2 differentiation was performed as previously described. (I. M. Djuretic et al., Nat Immunol 8, 145 (2007)). Human IL-2 supernatant (National Cancer Institute) was used in culture at 0.01 U/ml and was added at 48 hours-post activation when T cells were split into tissue culture wells lacking CD3 and CD28 antibodies, with the exception of Th17 cultures that were maintained in the absence of IL-2. All reagents were added at the time of T cell activation and again at 48-hours post activation unless indicated otherwise. For some experiments, purified CD4^+ CD25^− T cells, CD8^+ T cells or B cells were labeled with 1 μM CFSE (Invitrogen) prior to activation in accordance with manufacturers instructions.
# Detection of cytokine production: Cytokines secreted into media supernatant were measured using the mouse Th1/Th2 cytometric bead array (CBA, BD Pharmingen) in accordance with manufacturers instructions. Briefly, CD4^+ CD25^− T cells were activated in anti-CD3/anti-CD28-coated tissue culture wells and supernatants were collected at the indicated times. For detection of intracellular cytokines in murine cells, cultured T or B cells were stimulated with 10 nM PMA (Sigma) and […] (Sigma) for 4-5 hours in the presence of […] (Sigma). Stimulated cells were harvested, washed with PBS and fixed with PBS plus 4% paraformaldehyde at room temperature for 20 minutes. […]
# SV-MES mesangial cells = assay: eIF2α phosphorylation in SV-MES mesangial cells (western blot); type: cell-based; conditions: 20 nM HF, 2 hours
# Description: SV-MES mesangial cells were stimulated for 2 hours with DMSO, 20 nM MAZ1310 or 20 nM HF. Whole cell lysates were analyzed for expression of phosphorylated or total eIF2α or GCN2 by western blotting.
# Western blotting: Whole cell lysates were generated from T cells activated for the indicated times. For STAT3 and Smad2/3 western blots cells were harvested, washed in PBS and lysed in 50 mM Tris, pH 7.4, 0.1% SDS, 1% Triton-×100, 140 mM NaCl, 1 mM EDTA, 1 mM EGTA supplemented with protease inhibitors tablets (Roche—Germany), 1 mM NaF and 1 mM Na3VO4. For eIF2α and ATF4 western blots, cells were harvested as above and lysed in 50 mM Tris, pH 7.4, 2% SDS, 20% glycerol and 2 mM EDTA supplemented with protease and phosphatase inhibitors as above. All lysates were cleared via centrifugation and 15-30 μg of protein was resolved by SDS-PAGE. Protein was transferred to nitrocellulose membranes, blocked and blotted using specific antibodies. Antibodies used for western blot analysis were anti-phospho-Smad2, anti-STAT3 (pY705), anti-STAT3, anti-eIF2α^pS51, anti-eIF2α, anti-GCN2^pT898, anti-GCN2 (all from cell signaling technology, Danvers, Mass.). Anti-ATF4/CREB2 and anti-β-actin were purchased from Santa Cruz biotechnology (Santa Cruz, Calif.). […]
# mTOR = assay: Signaling downstream of mTOR in fibroblasts; type: cell-based
# [1] = system: human peripheral blood T cells; conditions: cited from earlier work
# [2] = rabbit, in vivo; cited from earlier work
smiles,measurement,setting,value
"O=C(CC1NCCCC1O)Cn1cnc2cc(Br)c(Cl)cc2c1=O (racemic) [HF, 7-bromo-6-chloro-3-[3-(3-hydroxy-2-piperidinyl)-2-oxopropyl]-4(3H)-quinazolinone]","concentration causing general inhibition of T and B cell activation, proliferation and effector function",CD4+ CD25− T cells,> 20 nM
same,"concentration causing general inhibition of T and B cell activation, proliferation and effector function",CD4+ CD25− T cells; listed as halofuginone,20 to 40 nM
same,"T cell proliferation, CD25 upregulation or production of IL-2, TNF or IFNγ",CD4+ CD25− T cells; low concentrations of HF (1-10 nM),did not affect
same,"Th1, Th2 or iTreg differentiation (IFNγ, IL-4 or Foxp3 expression)",CD4+ CD25− T cells; low-dose HF,failed to modulate
same,eIF2α phosphorylation in cultured fibroblasts,SV-MES mesangial cells,increased eIF2α phosphorylation
same,signaling downstream of mTOR in fibroblasts,mTOR,did not inhibit
same,NFkB activation and T-cell secretion of cytokines,"[1]; 80 nM HF, crude preparation of primary T-cells",broadly suppress
same,IC50,"[1]; Lieba studies, read-out: 50% inhibition of cytokine secretion, NF-kB activation, p38 phosphorylation",20 to 40 nM
same,"levels of cytokine secretion, NF-kB activation and p38 phosphorylation",[1]; anti-CD3 activated T cells,generally reduced levels
same,HF in serum after topical treatment of rabbits,[2],undetectable in serum
